According to patent US10729692B2, “Dual inhibition of CDK and HSP90 destabilize HIF1alpha and synergistically induces cancer cell death” (Institute For Cancer Research, priority 2017, dated 2020):

Experiments:
[1] = test system: HIF1α; test: Heat shock-induced HIF1α level in HCT116 (Western blot); format: cell-based; details: HCT116, normoxia
Excerpt: (§1) HCT116, SW480, HT29, DLD1, and RKO cells were obtained from American Type Culture Collection. HCT116 and HT29 cells were maintained in McCoy's 5A medium (Hyclone) with 10% fetal bovine serum (FBS, Hyclone) and 1% penicillin/streptomycin (P/S). SW480, DLD1, and RCC4 cells were maintained in Dulbecco's modified Eagle medium (Hyclone) with 10% FBS and 1% P/S. RKO cells were maintained in RPMI 1640 medium (Hyclone) with 10% FBS and 1% P/S. Cells were regularly tested and authenticated. All cell lines were maintained at 37° C. in 5% CO2. As for hypoxia treatment, cells were kept in a hypoxia chamber (In vivo^2, Ruskinn) which maintains 0.5% O2.
(§2) Treated cells were lysed in RIPA buffer (Sigma). Protein concentrations were determined using a BCA Protein Assay Kit (Life Technologies). Equal amounts of total protein were boiled with LDS sample buffer (Thermo Fisher Scientific) and reducing agent (Invitrogen). Samples were analyzed with SDS-PAGE. Proteins were transferred to an Immobilon-P PVDF membrane (EMD Millipore). First and secondary antibodies were added in order. Signals were detected after addition of the ECL western blotting substrate (Thermo Fisher Scientific).

[2] = test system: HIF1α; test: HIF1α level in RCC4 cells (Western blot); format: cell-based; details: 6 hours under normoxia, independently of VHL presence
Excerpt: as §1, §2

Q: O=C1NC(=NCc2cccs2)S/C1=C\c1ccc2ncccc2c1 [Ro-3306] was tested. Which “reversal of heat shock upregulation of HIF1α” value [1] did it give?
A: The value was “reversed”.

Q: And the “level of HIF1α” value [2]?
A: The value was “decreases”.
